{"source": "patent US20190111059A1", "about": "“COMPOSITIONS AND METHODS FOR TREATING AUTISM SPECTRUM DISORDER” (Marinus Pharmaceuticals, Inc., priority 2017, published 2019)", "key": {"[1]": {"details": "cited from earlier work"}, "[2]": {"test_system": "children with non-syndromic autism spectrum disorder (ASD) and language impairment", "test": "Randomized placebo-controlled trial: Aberrant Behavior Checklist (ABC), parent questionnaire", "format": "in vivo, human", "details": "lower = less problems; for ABC Hyperactivity, estimated effect / ABC Inappropriate speech, estimated effect / ABC Irritability, estimated effect / ABC Lethargy, estimated effect / ABC Stereotyped behavior, estimated effect / ABC Total Score, estimated effect: vs placebo, mixed-model regression, calcium salt", "source_text": "The Aberrant Behavior Checklist (“ABC”) is a 58-item questionnaire that measures disruptive behaviors, including Irritability (15 items, range 0-45); Social Withdrawal (16 items, range 0-48); Stereotypy (7 items, range 0-21); Hyperactivity (16 items, range 0-48) and Inappropriate Speech (4 items, range 0-12). Each item is rated 0 to 3 with higher scores indicating greater severity. Multiple ASD clinical trials have used it and it has convergent and divergent validity. […] This two-arm double-blind randomized placebo-controlled parallel study with a 1:1 allocation was performed at Arkansas Children's Research Institute (Little Rock, Ark., USA) from 4 Jun. 2012 to 22 Nov. 2013. Parent and teacher questionnaires were requested at baseline and 6 and 12 weeks after starting treatment. Parents were asked to deliver baseline questionnaires to teachers or therapists. After the first visit, questionnaires were mailed to the parents and teachers at least 1 week prior to the target date of completion. Parents were asked to bring the completed teacher and parent 12-week questionnaires to the final assessment. Other questionnaires were returned in a preaddressed postage-paid envelope. The target dose of the intervention (INN: DL folinic acid calcium salt; USAN: leucovorin calcium) was 2 mg kg^−1 per day (maximum 50 mg per day) in two equally divided doses with half of the target dose given during the first 2 weeks. Dye-free, milk-product-free, vegetarian capsules were provided in three strengths (5, 10 and 25 mg) by Lee Silsby Compounding Pharmacy (Cleveland Heights, Ohio, USA). Certificate of analysis was provided for each capsule strength by an independent analytical service (Eagle Analytical Services, Houston, Tex., USA) for each batch of capsules produced. In all cases, potency was at least 99%. Secondary outcomes. Secondary outcome measures included the Ohio Autism Clinical Impression Scale (OACIS), Vineland Adaptive Behavior Scale 2nd Edition (VABS) Survey Interview Form and several questionnaires. Parents and teachers were asked to complete the Aberrant Behavior Checklist (ABC), Social Responsiveness Scale (SRS) and Behavioral Assessment System for Children 2nd Edition (BASC). Only parents were asked to complete the Autism Impact Measure (AIM) and Autism Symptoms Questionnaire (ASQ). Secondary outcome measures were analyzed using the mixed-model regression. Because of the large number of secondary outcomes, correction for multiple comparisons was conducted using the false discovery rate."}, "[3]": {"test_system": "children with non-syndromic autism spectrum disorder (ASD) and language impairment", "test": "Randomized placebo-controlled trial: Ohio Autism Clinical Impression Scale (OACIS)", "format": "in vivo, human", "details": "lower = less severity", "protocol": "The Ohio Autism Clinical Impression Scale (“OACIS”) is an observer-rated scale sensitive to clinically meaningful changes in ASD symptoms. […] Severity of each symptom was rated by the first author at baseline and at the final assessment by observing the entire assessment of verbal communication. In validation studies a 0.5-point change was considered clinically meaningful. This two-arm double-blind randomized placebo-controlled parallel study with a 1:1 allocation was performed at Arkansas Children's Research Institute (Little Rock, Ark., USA) from 4 Jun. 2012 to 22 Nov. 2013. Those confirmed to have language impairment were randomized to the folinic acid or placebo group and a fasting blood sample was obtained. Randomization was performed using a random number generator with a block size of four. The research pharmacists had exclusive access to the randomization allocation. After breakfast, the participants returned for language, developmental and behavioral assessments. Following these assessments the family was given the 12 weeks of the intervention and was instructed on its administration. Language, developmental and behavioral assessments were repeated after 12 weeks of treatment. The target dose of the intervention (INN: DL folinic acid calcium salt; USAN: leucovorin calcium) was 2 mg kg^−1 per day (maximum 50 mg per day) in two equally divided doses with half of the target dose given during the first 2 weeks. Dye-free, milk-product-free, vegetarian capsules were provided in three strengths (5, 10 and 25 mg) by Lee Silsby Compounding Pharmacy (Cleveland Heights, Ohio, USA). Certificate of analysis was provided for each capsule strength by an independent analytical service (Eagle Analytical Services, Houston, Tex., USA) for each batch of capsules produced. In all cases, potency was at least 99%. Secondary outcomes. Secondary outcome measures included the Ohio Autism Clinical Impression Scale (OACIS), Vineland Adaptive Behavior Scale 2nd Edition (VABS) Survey Interview Form and several questionnaires. Parents and teachers were asked to complete the Aberrant Behavior Checklist (ABC), Social Responsiveness Scale (SRS) and Behavioral Assessment System for Children 2nd Edition (BASC). Only parents were asked to complete the Autism Impact Measure (AIM) and Autism Symptoms Questionnaire (ASQ). Secondary outcome measures were analyzed using the mixed-model regression. Because of the large number of secondary outcomes, correction for multiple comparisons was conducted using the false discovery rate."}, "[4]": {"details": "2 mg kg^−1 per day, 12 weeks, baseline 4.4"}, "[5]": {"details": "vs placebo, mixed-model regression"}}, "note": "Where a name gives a salt, the structure may show the parent alone.", "data": [{"smiles": "Nc1nc2c(c(=O)[nH]1)N(C=O)C(CNc1ccc(C(=O)N[C@@H](CCC(=O)O)C(=O)O)cc1)CN2", "note": "(mixture of isomers) [Folinic acid, DL folinic acid calcium salt]", "values": [{"measurement": "Absorption following oral administration", "setting": "[1]", "value": "rapidly absorbed"}, {"measurement": "ABC Inappropriate speech, 12-week assessment mean", "setting": "[2]; 2 mg kg^−1 per day, 12 weeks, baseline 5.2", "value": 4.0, "unit": "Raw Score"}, {"measurement": "ABC Stereotyped behavior, 12-week assessment mean", "setting": "[2]; 2 mg kg^−1 per day, 12 weeks, baseline 6.1", "value": 3.7, "unit": "Raw Score"}, {"measurement": "ABC Lethargy, 12-week assessment mean", "setting": "[2]; 2 mg kg^−1 per day, 12 weeks, baseline 13.1", "value": 9.7, "unit": "Raw Score"}, {"measurement": "ABC Irritability, 12-week assessment mean", "setting": "[2]; 2 mg kg^−1 per day, 12 weeks, baseline 13.4", "value": 9.1, "unit": "Raw Score"}, {"measurement": "ABC Hyperactivity, 12-week assessment mean", "setting": "[2]; 2 mg kg^−1 per day, 12 weeks, baseline 25.0", "value": 22.1, "unit": "Raw Score"}, {"measurement": "ABC Total Score, 12-week assessment mean", "setting": "[2]; 2 mg kg^−1 per day, 12 weeks, baseline 62.7", "value": 48.5, "unit": "Raw Score"}, {"measurement": "ABC Hyperactivity, estimated effect", "setting": "[2]", "value": "−1.8", "unit": "Raw Score"}, {"measurement": "ABC Inappropriate speech, estimated effect", "setting": "[2]", "value": "−1.7", "unit": "Raw Score"}, {"measurement": "ABC Irritability, estimated effect", "setting": "[2]", "value": "−1.2", "unit": "Raw Score"}, {"measurement": "ABC Lethargy, estimated effect", "setting": "[2]", "value": "−1.4", "unit": "Raw Score"}, {"measurement": "ABC Stereotyped behavior, estimated effect", "setting": "[2]", "value": "−0.9", "unit": "Raw Score"}, {"measurement": "ABC Total Score, estimated effect", "setting": "[2]", "value": "−4.7", "unit": "Raw Score"}, {"measurement": "ABC Hyperactivity, estimated effect", "setting": "[2]; listed as folinic acid", "value": "significantly improved"}, {"measurement": "ABC Inappropriate speech, estimated effect", "setting": "[2]; listed as folinic acid", "value": "significantly improved"}, {"measurement": "ABC Irritability, estimated effect", "setting": "[2]; listed as folinic acid", "value": "significantly improved"}, {"measurement": "ABC Lethargy, estimated effect", "setting": "[2]; listed as folinic acid", "value": "significantly improved"}, {"measurement": "ABC Stereotyped behavior, estimated effect", "setting": "[2]; listed as folinic acid", "value": "significantly improved"}, {"measurement": "ABC Total Score, estimated effect", "setting": "[2]; listed as folinic acid", "value": "significantly improved"}, {"measurement": "OACIS Sensory sensitivity, 12-week assessment mean", "setting": "[3]; 2 mg kg^−1 per day, 12 weeks, baseline 1.6", "value": 1.4, "unit": "Severity"}, {"measurement": "OACIS Restricted interest, 12-week assessment mean", "setting": "[3]; 2 mg kg^−1 per day, 12 weeks, baseline 2.3", "value": 2.0, "unit": "Severity"}, {"measurement": "OACIS Anxiety, 12-week assessment mean", "setting": "[3]; 2 mg kg^−1 per day, 12 weeks, baseline 2.5", "value": 2.3, "unit": "Severity"}, {"measurement": "OACIS Repetitive behavior, 12-week assessment mean", "setting": "[3]; 2 mg kg^−1 per day, 12 weeks, baseline 3.2", "value": 2.5, "unit": "Severity"}, {"measurement": "OACIS Non-verbal communication, 12-week assessment mean", "setting": "[3]; 2 mg kg^−1 per day, 12 weeks, baseline 3.6", "value": 3.3, "unit": "Severity"}, {"measurement": "OACIS Aberrant behavior, 12-week assessment mean", "setting": "[3]; 2 mg kg^−1 per day, 12 weeks, baseline 3.8", "value": 3.4, "unit": "Severity"}, {"measurement": "OACIS Hyperactivity, 12-week assessment mean", "setting": "[3]; 2 mg kg^−1 per day, 12 weeks, baseline 4.1", "value": 3.8, "unit": "Severity"}, {"measurement": "OACIS Social, 12-week assessment mean", "setting": "[3]; 2 mg kg^−1 per day, 12 weeks, baseline 4.3", "value": 3.8, "unit": "Severity"}, {"measurement": "OACIS Autistic behavior, 12-week assessment mean", "setting": "[3]; [4]", "value": 4.0, "unit": "Severity"}, {"measurement": "OACIS Verbal communication, 12-week assessment mean", "setting": "[3]; [4]", "value": 3.8, "unit": "Severity"}, {"measurement": "OACIS Aberrant behavior, estimated effect", "setting": "[3]; [5]", "value": "−0.3", "unit": "Severity"}, {"measurement": "OACIS Anxiety, estimated effect", "setting": "[3]; [5]", "value": "−0.1", "unit": "Severity"}, {"measurement": "OACIS Autistic behavior, estimated effect", "setting": "[3]; [5]", "value": "−0.2", "unit": "Severity"}, {"measurement": "OACIS Hyperactivity, estimated effect", "setting": "[3]; [5]", "value": "−0.3", "unit": "Severity"}, {"measurement": "OACIS Non-verbal communication, estimated effect", "setting": "[3]; [5]", "value": "−0.0", "unit": "Severity"}, {"measurement": "OACIS Repetitive behavior, estimated effect", "setting": "[3]; [5]", "value": "−0.4", "unit": "Severity"}, {"measurement": "OACIS Restricted interest, estimated effect", "setting": "[3]; [5]", "value": "−0.2", "unit": "Severity"}, {"measurement": "OACIS Sensory sensitivity, estimated effect", "setting": "[3]; [5]", "value": "−0.3", "unit": "Severity"}, {"measurement": "OACIS Social, estimated effect", "setting": "[3]; [5]", "value": "−0.1", "unit": "Severity"}, {"measurement": "OACIS Verbal communication, estimated effect", "setting": "[3]; [5]", "value": "−0.2", "unit": "Severity"}]}]}
